Like-named read-outs stand apart in the source and are kept apart here.
Columns and labels:
Assay in all cases: stopped-flow CO2 hydration assay
Type in all cases: biochemical
hCA XII = biological target: T1, hCA XII (Homo sapiens, UniProt O43570); conditions: read-out: KI (μM)^a,b / hCA XII
T1 construct: gene CA12; recombinant, obtained in-house
From the text: stopped-flow CO2 hydration assay on hCA XII

hCA II [1] = biological target: T2, hCA II (Homo sapiens, UniProt P00918); conditions: CO2 […], […] HEPES pH […] NaClO4, […] h preincubation at room temperature; read-out: KI (μM)^a,b / hCA I
T2 construct: gene CA2; recombinant, obtained in-house

hCA IX = biological target: T3, hCA IX (Homo sapiens, UniProt Q16790); conditions: read-out: KI (μM)^a,b / hCA IX
T3 construct: gene CA9; recombinant, obtained in-house
From the text: stopped-flow CO2 hydration assay on hCA IX

hCA I = biological target: T4, hCA I (Homo sapiens, UniProt P00915); conditions: read-out: KI (μM)^a,b / hCA I
T4 construct: gene CA1; recombinant, obtained in-house
From the text: stopped-flow CO2 hydration assay on hCA I

hCA II [2] = biological target: T2, hCA II; conditions: CO2 1.7-17 mM, 20 mM HEPES pH 7.4, 20 mM NaClO4, 6 h preincubation at room temperature; read-out: KI (μM)^a,b / hCA I
From the text: stopped-flow CO2 hydration assay on hCA II

[3] = CO2 […], […] HEPES pH […] NaClO4, […] h preincubation at room temperature
[4] = CO2 1.7-17 mM, 20 mM HEPES pH 7.4, 20 mM NaClO4, 6 h preincubation at room temperature

T1 sequence (O43570 25-354 limits assumed): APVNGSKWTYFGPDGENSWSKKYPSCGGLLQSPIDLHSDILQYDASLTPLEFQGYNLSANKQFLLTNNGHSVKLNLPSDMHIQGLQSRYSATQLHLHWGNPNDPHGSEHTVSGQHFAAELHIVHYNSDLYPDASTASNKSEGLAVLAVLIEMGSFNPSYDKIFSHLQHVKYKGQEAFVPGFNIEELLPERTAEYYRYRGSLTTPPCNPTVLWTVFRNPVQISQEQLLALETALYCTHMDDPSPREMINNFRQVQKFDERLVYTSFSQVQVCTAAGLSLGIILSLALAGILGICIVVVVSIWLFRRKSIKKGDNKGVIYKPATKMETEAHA
T4 sequence (P00915 2-261): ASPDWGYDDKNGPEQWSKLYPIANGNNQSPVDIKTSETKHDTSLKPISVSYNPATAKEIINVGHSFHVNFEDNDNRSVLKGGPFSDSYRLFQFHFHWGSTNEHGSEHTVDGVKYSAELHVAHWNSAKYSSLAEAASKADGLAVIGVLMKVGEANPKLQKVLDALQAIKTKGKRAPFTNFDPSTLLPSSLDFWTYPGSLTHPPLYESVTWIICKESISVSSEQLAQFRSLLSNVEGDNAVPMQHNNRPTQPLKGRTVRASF

Compound	Ki (hCA XII; [3]) [µM]	Ki (hCA II [1]) [µM]	Ki (hCA IX; [3]) [µM]	Ki (hCA I; [3]) [µM]	Ki (hCA XII; [4]) [µM]	Ki (hCA II [2]) [µM]	Ki (hCA IX; [4]) [µM]	Ki (hCA I; [4]) [µM]
CCOP1(=O)CC=Cc2cccc(OC)c2O1 (stereo not shown) [6e, 2-Ethoxy-9-methoxy-3H-benzo[f][1,2]oxaphosphepine 2-oxide]	7.4	> 100	9	> 100	–	–	–	–
CCOP1(=O)CC=Cc2cc(I)ccc2O1 (stereo not shown) [6b, 2-Ethoxy-7-iodo-3H-benzo[f][1,2]oxaphosphepine 2-oxide]	2.4	> 100	4.7	> 100	–	–	–	–
2-Hydroxy-3H-benzo[f][1,2]oxaphosphepine 2-oxide [7a]	–	–	–	–	0.51	> 100	1.3	> 100
O=P1(O)CC=Cc2cc(I)ccc2O1 [7b, 2-Hydroxy-7-iodo-3H-benzo[f][1,2]oxaphosphepine 2-oxide]	0.68	> 100	0.88	> 100	–	–	–	–
CCOP1(=O)CC=Cc2cc([N+](=O)[O-])ccc2O1 (stereo not shown) [6g, 2-Ethoxy-7-nitro-3H-benzo[f][1,2]oxaphosphepine 2-oxide]	0.95	> 100	3.9	> 100	–	–	–	–
CCOP1(=O)CC=Cc2cc(Cl)cc(Cl)c2O1 (stereo not shown) [6f, 7,9-Dichloro-2-ethoxy-3H-benzo[f][1,2]oxaphosphepine 2-oxide]	3.4	> 100	6.1	> 100	–	–	–	–
CCOP1(=O)CC=Cc2cccc(Br)c2O1 (stereo not shown) [6d, 9-Bromo-2-ethoxy-3H-benzo[f][1,2]oxaphosphepine 2-oxide]	3.3	> 100	11.3	> 100	–	–	–	–
CCOP1(=O)CC=Cc2cc(Br)ccc2O1 (stereo not shown) [6c, 7-Bromo-2-ethoxy-3H-benzo[f][1,2]oxaphosphepine 2-oxide]	1.6	> 100	0.76	> 100	–	–	–	–
O=P1(O)CC=Cc2cc(Cl)cc(Cl)c2O1 [7f, 7,9-Dichloro-2-hydroxy-3H-benzo[f][1,2]oxaphosphepine 2-oxide]	1.7	> 100	0.8	> 100	–	–	–	–
O=[N+]([O-])c1ccc2c(c1)C=CCP(=O)(O)O2 [7g, 2-Hydroxy-7-nitro-3H-benzo[f][1,2]oxaphosphepine 2-oxide]	1	> 100	0.67	> 100	–	–	–	–
COc1cccc2c1OP(=O)(O)CC=C2 [7e, 2-Hydroxy-9-methoxy-3H-benzo[f][1,2]oxaphosphepine 2-oxide]	1.2	> 100	1.8	> 100	–	–	–	–
CCOP1(=O)CC=Cc2ccccc2O1 (stereo not shown) [6a, 2-Ethoxy-3H-benzo[f][1,2]oxaphosphepine 2-oxide]	–	> 100	0.82	> 100	–	–	–	–
O=P1(O)CC=Cc2cccc(Br)c2O1 [7d, 9-Bromo-2-hydroxy-3H-benzo[f][1,2]oxaphosphepine 2-oxide]	1.8	> 100	2.5	> 100	–	–	–	–
O=P1(O)CC=Cc2cc(Br)ccc2O1 [7c, 7-Bromo-2-hydroxy-3H-benzo[f][1,2]oxaphosphepine 2-oxide]	0.96	> 100	1	> 100	–	–	–	–
